Assays:
airway epithelial cells = details: cited from earlier work
islet cells = experiment: Islet cell culture with upstream or downstream ROCK pathway inhibitor in place of a ROCK inhibitor; type: cell-based, human; details: used in the culture conditions in place of a ROCK inhibitor
Text: As used herein, inhibiting ROCK can mean to reduce the activity, function or expression of at least one of ROCK1 or ROCK2. […] In general, ROCK phosphorylates LIM kinase and myosin light chain (MLC) phosphatase after being activated through binding of GTP-bound Rho. One embodiment of the present invention thus involves blocking the upstream pathway of ROCK1 and/or ROCK2, for example GTP-bound Rho, such that ROCK1 and/or ROCK2 is not activated or its activity is reduced over untreated cells. Other upstream effectors include but are not limited to, integrins, growth factor receptors, including but not limited to, TGF-beta and EGFR, cadherins, G protein coupled receptors and the like. Another embodiment of the present invention thus involves blocking the activity, function or expression of downstream effector molecules of activated ROCK1 and/or ROCK2 such that ROCK1 and/or ROCK2 cannot propagate any signal or can only propagate a reduced signal over untreated cells. Downstream effectors include but are not limited to, Myosin phosphatase-targeting protein (MYPT), vimentin, LIMK, Myosin light chain kinase, NHE1, cofilin, Myosin II and the like. […] Upstream or downstream inhibition of ROCK, in place of direct ROCK inhibition and in conjunction with the other culture conditions described and required herein, may or may not generate conditionally immortalized islet cells. […]

Molecule | effect on airway epithelial cells (airway epithelial cells) | effect on cell differentiation and proliferation in vitro (islet cells)
O=S(=O)(c1cccc2cnccc12)N1CCCNCC1 [HA 1077, fasudil] | induces membrane ruffling, loss of actin stress fibers and apoptosis | –
C[C@@H](N)[C@H]1CC[C@H](C(=O)Nc2ccncc2)CC1 [Y-27632] | induces membrane ruffling, loss of actin stress fibers and apoptosis | –
Cc1ccc2c(c1)C(=O)C1(O)CCN(c3ccccc3)C1=N2 (stereo not shown) [blebbistatin] | – | allow the cells to bypass differentiation and allow proliferation in vitro
C3 transferase | – | allow the cells to bypass differentiation and allow proliferation in vitro
